Source: PubChem BioAssay (NCI)
“And” between values parts separate entries of the source, which are not always exact repeats. Equal values may be shown once.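 Five concentrations, 48 hours, 96-well plates. GI50 marks 50% less growth. TGI: total growth inhibition.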

Key:
Assay in all cases: DTP human tumour cell line panel, 48 h
[1] = system: ACHN renal
[2] = system: CCRF-CEM leukemia
[3] = system: DU-145 prostate
[4] = system: HOP-92 NSCLC
[5] = system: HT29 colon
[6] = system: KM12 colon
[7] = system: NCI-H460 lung
[8] = system: SF-268 CNS
[9] = system: SF-539 CNS
[10] = system: TK-10 renal

Structure (SMILES) | TGI [1] | TGI [2] | TGI [3] | TGI [4] | TGI [5] | TGI [6] | TGI [7] | TGI [8] | TGI [9] | TGI [10] | GI50 [2] | GI50 [3] | GI50 [4] | GI50 [5] | GI50 [6] | GI50 [7] | GI50 [8] | GI50 [10] | GI50 [9] | GI50 [1]
C=CCO[C@]1(CC=C)C(=O)C(=O)OC1C1COC(C)(C)O1 (some centres not stated) | 31.1 µM | 89.5 µM | > 100 µM | 41.3 µM | 37.2 µM | 39.3 µM | > 100 µM | > 100 µM | > 100 µM |  |  |  |  |  |  |  |  |  |  | 
CC/C=C(\C(=C/CC)[N+](=O)[O-])[N+](=O)[O-] | 33.2 µM | 42.4 µM | 45.7 µM | 45.1 µM | 31.9 µM |  | 35.5 µM |  | 40.3 µM | 33.7 µM |  |  |  |  |  |  |  |  |  | 
S=C(c1c[nH]c2ccccc12)N1CCN(Cc2ccccc2)CC1 | > 100 µM | > 100 µM | > 100 µM |  | 30.1 µM | 33.8 µM | 67.6 µM | 35.6 µM | 32.9 µM | > 100 µM |  |  |  |  |  |  |  |  |  | 
CC(=O)NC1=C[C@@H]([C@H]2COC(C)(C)O2)OC1=O |  | > 100 µM |  | > 100 µM | > 100 µM | > 100 µM | > 100 µM | > 100 µM | > 100 µM |  |  |  |  |  |  |  |  |  |  | 
O=[N+]([O-])c1ccc(C=NCC2CCCN3CCCCC23)cc1 (configuration not stated) | > 100 µM | > 100 µM | > 100 µM | > 100 µM | 34.9 µM | > 100 µM | > 100 µM | > 100 µM |  | > 100 µM |  |  |  |  |  |  |  |  |  | 
COc1ccc(CN=C(N)N)c2ccccc12 | > 100 µM | > 100 µM | > 100 µM |  | > 100 µM | > 100 µM |  | 38.8 µM | 52.8 µM | > 100 µM |  |  |  |  |  |  |  |  |  | 
CCOC(=O)C(NC(=O)c1ccccc1)(N1CCOCC1)C(F)(F)F (configuration not stated) | > 100 µM | > 100 µM | > 100 µM | > 100 µM | > 100 µM | > 100 µM |  | > 100 µM | > 100 µM | > 100 µM |  |  |  |  |  |  |  |  |  | 
COc1ccc(C2C3COc4ccccc4C3=NN2c2ccccc2)cc1 (configuration not stated) | > 100 µM | > 100 µM |  | > 100 µM | > 100 µM | > 100 µM | > 100 µM | > 100 µM | > 100 µM | > 100 µM |  |  |  |  |  |  |  |  |  | 
Cc1ccc(N(CC(=O)Nc2ccc(S(=O)(=O)N3CCC(N4CCCC4)CC3)cc2)S(=O)(=O)c2ccc(Cl)cc2)cc1 |  | 6.35 µM | 3.4 µM | 2.71 µM | 3.68 µM | 3.9 µM | 3.43 µM | 3.29 µM |  | 3.36 µM | 1.9 µM | 1.76 µM | 1.19 µM | 1.87 µM | 1.96 µM | 1.75 µM | 1.61 µM | 1.68 µM |  | 
Cc1ccc(/C=N/Nc2ccc3ccccc3n2)s1 | 39.9 µM | > 100 µM |  | 78.3 µM | 44 µM | > 100 µM |  | > 100 µM | > 100 µM | > 100 µM |  |  |  |  |  |  |  |  |  | 
CC(=O)N=C1N(/C=C2\C(=O)Oc3ccccc3C2=O)C(=O)/C(=C/c2ccc(Cl)cc2Cl)N1C | > 100 µM | > 100 µM | > 100 µM |  | > 100 µM | > 100 µM |  | > 100 µM | > 100 µM |  |  |  |  |  |  |  |  |  |  | 
Cc1ccc(/C(O)=C/c2nc3ccccc3s/c2=N/CS(=O)(=O)c2ccc(C)cc2)cc1 | > 10 µM | > 10 µM | > 10 µM | > 10 µM | > 10 µM | > 10 µM |  | > 10 µM | > 10 µM | > 10 µM |  |  |  |  |  |  |  |  |  | 
c1csc(C[N+]23CN4CN(CN(C4)C2)C3)c1 | > 100 µM | 44.9 µM |  | 44.9 µM | > 100 µM | > 100 µM | 49.2 µM | > 100 µM | > 100 µM | 79.5 µM |  |  |  |  |  |  |  |  |  | 
C=C(OC1C(C)=C2C(C1OC(=O)CCCCCCC)C(C)(OC(C)=O)CC(OC(=O)CCC)C1(O)C2OC(=O)C1(C)O)/C(C)=C/C (configuration not stated) |  | 6.24 µM |  | 3.09 µM | 1.8 µM | 3.63 µM | 0.046 µM | 16.7 µM | 8.01 µM |  | < 0.0001 µM |  |  | < 0.0001 µM | < 0.0001 µM | < 0.0001 µM | < 0.0001 µM |  | < 0.0001 µM | 
CN(c1ccccc1Cl)S(=O)(=O)c1ccc([N+](=O)[O-])cc1 | > 100 µM | > 100 µM | > 100 µM |  | > 100 µM | > 100 µM | > 100 µM | > 100 µM | > 100 µM | > 100 µM |  |  |  |  |  |  |  |  |  | 
Nc1nc(N)c2cc(NCc3ccc(Cl)c(Cl)c3)ccc2n1 | 2.58 µM |  | 3.01 µM | 1.75 µM | 2.05 µM | 2.59 µM |  | 3.12 µM | 3.04 µM | 2.93 µM |  | 1.65 µM | 0.348 µM | 0.813 µM | 1.29 µM |  | 1.58 µM | 1.59 µM | 1.65 µM | 1.31 µM
O=C(N/N=C(/COc1ccc([N+](=O)[O-])cc1)N=Cc1ccncc1)c1ccncc1 | > 100 µM | > 100 µM | > 100 µM |  | > 100 µM | > 100 µM | > 100 µM | > 100 µM | > 100 µM | > 100 µM |  |  |  |  |  |  |  |  |  | 
CC(=O)OC[C@@H](OC(C)=O)[C@H](OC(C)=O)[C@@H]1OC(C)(C)O[C@@H]1C1SCCCS1 | > 100 µM | > 100 µM | > 100 µM |  |  | > 100 µM | > 100 µM | > 100 µM | > 100 µM | > 100 µM |  |  |  |  |  |  |  |  |  | 
CCCCCCCCCCC1OC([C@@H](O)CC[C@H](O)C2CC[C@@H](CCCCCCCC(O)CC3=CC(C)OC3=O)O2)CCC1O (some centres not stated) | 8.79 µM and > 25 µM | > 25 µM | > 25 µM | > 25 µM |  | > 25 µM | > 25 µM | > 25 µM | > 25 µM | > 25 µM |  |  | 3.03 µM |  | 10.3 µM | 5.08 µM | 23.6 µM |  |  | 1.62 µM
O=c1[nH]nc(Cc2ccccc2)n1CCO | > 100 µM |  | > 100 µM | > 100 µM | > 100 µM | > 100 µM | > 100 µM | > 100 µM | > 100 µM | > 100 µM |  |  |  |  |  |  |  |  |  | 
CCOC(=O)CC1(c2cccc3ccccc23)OC(=O)c2ccccc21 (configuration not stated) | > 100 µM | > 100 µM |  |  | > 100 µM | > 100 µM | > 100 µM | > 100 µM |  | > 100 µM |  |  |  |  |  |  |  |  |  | 
